Reference: ChEMBL document CHEMBL1201862, “PubChem BioAssay data set” (2004)
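Cells were grown in 96-well plates and exposed to each compound for 48 hours at five concentrations; endpoints were interpolated linearly between bracketing concentrations, or set to the highest concentration if not reached. GI50 is the concentration that inhibits growth by half.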 The source made the active and inactive calls. Cut-off read from the data, not from the text of the source: active = GI50 up to about 1.1 µM and inactive = higher.

Experiments:
Assay in all cases: NCI tumour cell line growth inhibition, 48 h
786-0 = tested on: 786-0
A498 = tested on: A498
A549 = tested on: A549
ACHN = tested on: ACHN
BT-549 = tested on: BT-549
CAKI-1 = tested on: CAKI-1
CCRF-CEM = tested on: CCRF-CEM
COLO 205 = tested on: COLO 205
DU-145 = tested on: DU-145
EKVX = tested on: EKVX
HCC 2998 = tested on: HCC 2998
HCT-116 = tested on: HCT-116
HCT-15 = tested on: HCT-15
HL-60 = tested on: HL-60
HOP-62 = tested on: HOP-62
HOP-92 = tested on: HOP-92
HT-29 = tested on: HT-29
IGROV-1 = tested on: IGROV-1
K562 = tested on: K562
KM12 = tested on: KM12
LOX IMVI = tested on: LOX IMVI
M14 = tested on: M14
MCF7 = tested on: MCF7
MDA-MB-231 = tested on: MDA-MB-231
MDA-MB-435 = tested on: MDA-MB-435
MDA-N = tested on: MDA-N
MOLT-4 = tested on: MOLT-4
NCI-H23 = tested on: NCI-H23
NCI-H522 = tested on: NCI-H522
NCI/ADR-RES = tested on: NCI/ADR-RES
OVCAR-3 = tested on: OVCAR-3
OVCAR-4 = tested on: OVCAR-4
OVCAR-5 = tested on: OVCAR-5
OVCAR-8 = tested on: OVCAR-8
PC-3 = tested on: PC-3
RPMI-8226 = tested on: RPMI-8226
SF-268 = tested on: SF-268
SF-295 = tested on: SF-295
SF-539 = tested on: SF-539
SK-MEL-28 = tested on: SK-MEL-28
SK-MEL-2 = tested on: SK-MEL-2
SK-MEL-5 = tested on: SK-MEL-5
SK-OV-3 = tested on: SK-OV-3
SN12C = tested on: SN12C
SNB-19 = tested on: SNB-19
SR = tested on: SR
SW-620 = tested on: SW-620
T47D = tested on: T47D
TK-10 = tested on: TK-10
U-251 = tested on: U-251
UACC-257 = tested on: UACC-257
UACC-62 = tested on: UACC-62
UO-31 = tested on: UO-31
Malme-3M = tested on: Malme-3M
NCI-H226 = tested on: NCI-H226
NCI-H460 = tested on: NCI-H460
SNB-75 = tested on: SNB-75

Question: What does the source list for `CC(C)(C)NC(=O)/C(=C\Sc1ccccc1)c1ccc2c(c1)OCO2`?
Answer: GI50 (786-0): 31.9 µM (inactive); GI50 (A498): 20.4 µM (inactive); GI50 (A549): 31 µM (inactive); GI50 (ACHN): 36.9 µM (inactive); GI50 (BT-549): 75.9 µM (inactive); GI50 (CAKI-1): 38.4 µM (inactive); GI50 (CCRF-CEM): 28.5 µM (inactive); GI50 (COLO 205): 22.4 µM (inactive); GI50 (DU-145): 37.2 µM (inactive); GI50 (EKVX): 28.4 µM (inactive); GI50 (HCC 2998): 37.3 µM (inactive); GI50 (HCT-116): 24.3 µM (inactive); GI50 (HCT-15): 30.8 µM; GI50 (HL-60): 18.7 µM (inactive); GI50 (HOP-62): 44.3 µM (inactive); GI50 (HOP-92): 15.5 µM (inactive); GI50 (HT-29): 17.9 µM (inactive); GI50 (IGROV-1): 29.2 µM (inactive); GI50 (K562): 43.6 µM (inactive); GI50 (KM12): 32.4 µM (inactive); GI50 (LOX IMVI): 16.1 µM (inactive); GI50 (M14): 21.8 µM (inactive); GI50 (MCF7): 26.1 µM (inactive); GI50 (MDA-MB-231): 21.8 µM (inactive); GI50 (MDA-MB-435): 22.2 µM (inactive); GI50 (MDA-N): 22.8 µM (inactive); GI50 (MOLT-4): 21.9 µM (inactive); GI50 (NCI-H23): 35.3 µM (inactive); GI50 (NCI-H522): 17.9 µM (inactive); GI50 (NCI/ADR-RES): 24.2 µM (inactive); GI50 (OVCAR-3): 30.8 µM (inactive); GI50 (OVCAR-4): 51.3 µM (inactive); GI50 (OVCAR-5): 30.6 µM (inactive); GI50 (OVCAR-8): 32 µM (inactive); GI50 (PC-3): 22.5 µM (inactive); GI50 (RPMI-8226): 22.8 µM (inactive); GI50 (SF-268): 16.2 µM (inactive); GI50 (SF-295): 39.1 µM (inactive); GI50 (SF-539): 35.3 µM (inactive); GI50 (SK-MEL-28): 49 µM (inactive); GI50 (SK-MEL-2): 15.5 µM (inactive); GI50 (SK-MEL-5): 17.6 µM (inactive); GI50 (SK-OV-3): 52.5 µM (inactive); GI50 (SN12C): 26.7 µM (inactive); GI50 (SNB-19): 38.7 µM (inactive); GI50 (SR): 25.8 µM (inactive); GI50 (SW-620): 37.8 µM (inactive); GI50 (T47D): 26 µM (inactive); GI50 (TK-10): 44.8 µM (inactive); GI50 (U-251): 30 µM (inactive); GI50 (UACC-257): 25.4 µM (inactive); GI50 (UACC-62): 19.8 µM (inactive); GI50 (UO-31): 26.9 µM (inactive)

Question: `O=[N+]([O-])/C(Cl)=C(\NCCN/C(C(Cl)=C(Cl)Cl)=C(/Cl)[N+](=O)[O-])C(Cl)=C(Cl)Cl` was tested. Which GI50 (786-0) did it give?
Answer: 31.6 µM (inactive)

Question: And the GI50 (A498)?
Answer: 48.1 µM (inactive)

Question: What about the GI50 (A549) of the same compound?
Answer: 45.2 µM (inactive)

Question: And the GI50 (ACHN)?
Answer: > 100 µM (inactive)

Question: What about the GI50 (BT-549) of the same compound?
Answer: 69 µM (inactive)

Question: What about the GI50 (CAKI-1) of the same compound?
Answer: > 100 µM (inactive)

Question: And the GI50 (CCRF-CEM)?
Answer: 27 µM (inactive)

Question: And the GI50 (COLO 205)?
Answer: 36.4 µM (inactive)

Question: What about the GI50 (DU-145) of the same compound?
Answer: > 100 µM (inactive)

Question: What about the GI50 (EKVX) of the same compound?
Answer: > 100 µM (inactive)

Question: And the GI50 (HCC 2998)?
Answer: 83.6 µM (inactive)

Question: And the GI50 (HCT-116)?
Answer: 39.1 µM (inactive)

Question: What about the GI50 (HCT-15) of the same compound?
Answer: 36.6 µM

Question: And the GI50 (HL-60)?
Answer: 25.6 µM (inactive)

Question: And the GI50 (HOP-62)?
Answer: 71.8 µM (inactive)

Question: What about the GI50 (HOP-92) of the same compound?
Answer: 17.9 µM (inactive)

Question: What about the GI50 (IGROV-1) of the same compound?
Answer: 62.7 µM (inactive)

Question: And the GI50 (K562)?
Answer: 27.8 µM (inactive)

Question: What about the GI50 (KM12) of the same compound?
Answer: 31.8 µM (inactive)

Question: And the GI50 (LOX IMVI)?
Answer: 18.8 µM (inactive)

Question: And the GI50 (M14)?
Answer: 61.1 µM (inactive)

Question: And the GI50 (MCF7)?
Answer: 47.6 µM (inactive)

Question: What about the GI50 (MDA-MB-231) of the same compound?
Answer: 52.1 µM (inactive)

Question: What about the GI50 (MDA-MB-435) of the same compound?
Answer: 87.1 µM (inactive)

Question: What about the GI50 (MDA-N) of the same compound?
Answer: 82.2 µM (inactive)

Question: What about the GI50 (MOLT-4) of the same compound?
Answer: 22 µM (inactive)

Question: What about the GI50 (Malme-3M) of the same compound?
Answer: 46.5 µM (inactive)

Question: What about the GI50 (NCI-H226) of the same compound?
Answer: > 100 µM (inactive)

Question: What about the GI50 (NCI-H23) of the same compound?
Answer: 28.7 µM (inactive)

Question: What about the GI50 (NCI-H460) of the same compound?
Answer: 49.5 µM (inactive)

Question: What about the GI50 (NCI/ADR-RES) of the same compound?
Answer: 89.7 µM (inactive)

Question: What about the GI50 (OVCAR-3) of the same compound?
Answer: 16.5 µM (inactive)

Question: And the GI50 (OVCAR-5)?
Answer: > 100 µM (inactive)

Question: What about the GI50 (OVCAR-8) of the same compound?
Answer: 40.3 µM (inactive)

Question: What about the GI50 (PC-3) of the same compound?
Answer: 43.6 µM (inactive)

Question: What about the GI50 (RPMI-8226) of the same compound?
Answer: 17.7 µM (inactive)

Question: What about the GI50 (SF-268) of the same compound?
Answer: 40.8 µM (inactive)

Question: What about the GI50 (SF-295) of the same compound?
Answer: 39.7 µM (inactive)

Question: What about the GI50 (SF-539) of the same compound?
Answer: > 100 µM (inactive)

Question: What about the GI50 (SK-MEL-28) of the same compound?
Answer: 57.8 µM (inactive)

Question: And the GI50 (SK-OV-3)?
Answer: 69.5 µM (inactive)

Question: What about the GI50 (SN12C) of the same compound?
Answer: 70.5 µM (inactive)

Question: What about the GI50 (SNB-19) of the same compound?
Answer: 92.9 µM (inactive)

Question: And the GI50 (SNB-75)?
Answer: 35.5 µM (inactive)

Question: What about the GI50 (SR) of the same compound?
Answer: 17.1 µM (inactive)

Question: And the GI50 (SW-620)?
Answer: 47.5 µM (inactive)

Question: What about the GI50 (T47D) of the same compound?
Answer: 51.2 µM (inactive)

Question: And the GI50 (TK-10)?
Answer: 71.4 µM (inactive)

Question: And the GI50 (U-251)?
Answer: 48.8 µM (inactive)

Question: And the GI50 (UACC-62)?
Answer: 31.2 µM (inactive)

Question: What about the GI50 (UO-31) of the same compound?
Answer: > 100 µM (inactive)
